Results reported in patent US9901566B1, “Limonoids for treating autoimmune diseases” (Macau University of Science and Technology, priority 2017, dated 2018).
Values joined by “and” are separate entries in the source; they are usually repeats but may differ in a detail not shown here. Equal values may be shown once. “Also recorded” adds a separate entry of the source.

How the values were obtained:
ROR-γt protein = assay: Western blotting of ROR-γt expression in ROR-γt-plasmid transfected HEK293 cells; assay type: cell-based, human; settings: 24 h
Protocol: The transfection assay is preformed according to the manufacturer's instruction of lipofectamine LTX (invitrogen, USA). In brief, HEK293 cells obtained from the American Type Culture Collection (ATCC, Manassas, Va., USA) were seeded in 1.5 ml of DMEM growth media plus 10% FBS at 5×10^5 cells per well. Five hundred micro liter Opti-MEM Reduced Serum Media containing 1.25 μg of DNA was added to the cells to be transfected, and then 1.25 μl of PLUS was added into the above diluted Opti-MEM:DNA solution, gently mixed and incubated for another 5 min at room temperature. Subsequently, lipofectamine LTX™ Reagent was added into the above solution, mixed gently and then incubated 30 min at room temperature to form DNA-lipofectamine LTX Reagent complexes. Finally, 500 μl of the DNA-lipofectamine LTX Reagent complexes was directly added to each well containing cells and mixed gently. The cells were incubated at 37° C. in a CO2 incubator for another 24 h.
After incubated for 24 h, the transfected HEK293 cells were treated with different concentrations of Amotsangin A, B, C or D for another 24 h. Then the cells were lysed with RIPA buffer containing 1× protease inhibitor mix (Roche, USA) to harvest total cellular proteins, and the protein concentration was calculated by the bicinchoninic acid (BCA) kit (Pierce, Rockford, Ill.). The total cellular proteins were then subjected to electrophoresis in 10% SDS/PAGE and transferred to nitrocellulose membranes. After blocking with 5% non-fat milk in a Tris-buffered saline-0.1% Tween-20 buffer (TBST), the membrane was subsequently incubated with specific primary antibodies (RORγt antibody (eBioscience, San Diego, USA) or β-actin antibody (Santa Cruz, USA)) and HRP-conjugated secondary antibodies. A chemiluminescence (ECL) detection system was used to detect the antibody-bound proteins on the membrane.

Th2 differentiation = assay: Flow cytometry, Th2 differentiation of naive CD4+ T cells (IL-4 production); assay type: cell-based, C57BL/6 mice; settings: for ratio of the IL-4 producing Th2 differentiation: Th2-polarizing conditions, 3 days
Protocol: (§1) Naive CD4^+ T cells were sorted by magnetic bead (Miltenyi Biotec) from spleen of C57BL/6 mice (8-14 weeks). CD4^+ T cells (5×10^5 cells/well) were activated with 2 μg/ml of plate-bound anti-mouse CD3 (Biolegend, San Diego, USA), and 5 μg/ml of anti-mouse CD28 (Biolegend) into 24-well-plates. For Th17 differentiation, cells were cultured for 3 days in the presence of 1 ng/ml recombinant human transforming growth factor-β (TGF-β1, Biolegend), 50 ng/ml recombinant mouse interleukin-6 (IL-6, Biolegend), and 5 ng/ml recombinant mouse IL-23 (Biolegend), and 10 μg/ml anti-mouse interleukin-4 (IL-4, Biolegend) with or without the limonoid. For the Th1 differentiation, the cells were cultured for 3 days in the presence of 2 ng/ml recombinant mouse interleukin-2 (IL-2, Biolegend), and 20 μg/ml anti-mouse IL-4 (Biolegend) with or without indicated compounds. For the Th2 differentiation, the cells were cultured for 3 days in the presence of 2 ng/ml recombinant mouse IL-2 (Biolegend), and 20 ng/ml recombinant mouse IL-4 (Biolegend), and 20 μg/ml anti-mouse IFN-γ (Biolegend) with or without compound. For the Treg differentiation, the cells were cultured for 3 days in the presence of 1 ng/ml recombinant human TGF-β1 (Biolegend), and 5 ng/ml recombinant mouse IL-2 (Biolegend) with or without indicated compounds.
(§2) For polarization of Th17, the cells were re-stimulated in complete RPMI 1640 containing 50 ng/ml PMA, 1 μg/ml ionomycin, and 1× Brefeldin A (Biolegend) for 4 h. For polarization of Th1 and Th2, the cells were re-stimulated in complete RPMI 1640 containing 50 ng/ml PMA and 1 μg/ml ionomycin. After 1 h of incubation, 1× Monensin (Biolegend) was added and incubated for 4 h. The cells were collected and washed with Staining Buffer (BD Biosciences, New Jersey, USA), and then stained with PerCP/Cy5.5 anti-mouse CD4 (Biolegend). And then the cells were fixed for 15 min with fixation buffer (BD Biosciences), permeabilized with BD Wash buffer (1×; BD Biosciences), and stained with PE anti-mouse IL-17A (Biolegend), FITC anti-mouse IFN-γ (Biolegend), and APC anti-mouse IL-4 (Biolegend) or APC anti-mouse Foxp3 (eBioscience). The cells were analyzed by BD FACS Aria III, and the acquired data were analyzed using FlowJo software.

[1] = tested on: ROR-γt luciferase reporter activity; assay: Lightswitch luciferase reporter assay (ROR Gamma T LUCPorter stable reporter HEK293 cells); assay type: cell-based; settings: 16 h
Protocol: ROR Gamma T LUCPorter™ Stable Reporter cells and LUCPorter™ Vector Control HEK293 cells (Imgenex) were plated in 96-well plates at 5×10^4 cells/well in triplicate in RPMI 1640 medium with 10% fetal bovine serum, penicillin (100 units/mL), streptomycin (100 μg/mL) and puromycin (3 μg/mL) over night. […] Then the complete mixture of luciferase assay reagent (Biocompare, Texas, USA) has been added to the wells and the mixture has been incubated for 30 min at room temperature in the dark. The mixture has been transferred into a 96 well white plates before reading. Finally, each well was read for 2 seconds in a plate luminometer on a Microplate UV/VIS Spectrophotometer (TECAN, Switzerland). Data are obtained from three independent experiments.

Th1 differentiation = assay: Flow cytometry, Th1 differentiation of naive CD4+ T cells (IFN-γ production); assay type: cell-based, C57BL/6 mice; settings: for ratio of the IFN-γ producing Th1 differentiation: Th1-polarizing conditions, 3 days
Protocol: as §1, §2

Treg differentiation = assay: Flow cytometry, Treg differentiation of naive CD4+ T cells (Foxp3 production); assay type: cell-based, C57BL/6 mice; settings: for Foxp3 producing Treg differentiation: Treg-polarizing conditions, 3 days
Protocol: as §1, §2

[2] = tested on: human peripheral blood mononuclear cells (PBMCs); assay: Cell viability (MTT) assay of human PBMCs; assay type: cell-based; settings: concentration of up to 50 μM, 72 h
Protocol: Human peripheral blood mononuclear cells have been isolated from buffy coat. In brief, the buffy coat provided by Macao Blood Transfusion Centre was mixed with normal saline, and then added to 50 mL centrifuge tube containing Ficoll-Pague plus (Amersham Biosciences). The mixture was separated into several layers after centrifuged at 350 g for 35 min. The layer of mononuclear cells has been collected, and then washed twice by normal saline. These cells were be used for the experiments.
Human PBMCs (1×10^5/well) were cultured in 96-well plates in triplicate in RPMI 1640 medium (Gibco, Paisley, UK) with 10% fetal bovine serum (FBS; Gibco), penicillin (100 units/mL) and streptomycin (100 μg/mL), and different concentration of Amotsangin A, B, C and D were added for 72 h. MTT (5 mg/mL) was added to the cells followed by 4 h incubation, followed by addition of solvent (10% sodium dodecyl sulfate (SDS), 50% N, N-dimethyl formamide, pH 7.2) to dissolve the purple precipitate. The absorbance was recorded on a Microplate UV/VIS Spectrophotometer (TECAN, Switzerland) at 570 nm wavelength on the following day. The percentage of cell viability was calculated using the following formula: Cell viability (%)=(ODtreated−ODblank)/(ODcontrol−ODblank)×100.

Th17 differentiation = assay: Flow cytometry, Th17 differentiation of naive CD4+ T cells (IL-17 production); assay type: cell-based, C57BL/6 mice; settings: Th17-polarizing conditions; for ratio of the IL-17 production: 3 days; for Th17 cell differentiation (effect in words): up to 25 μM (Amotsangin C up to 10 μM)
Protocol: as §1, §2

Compound	expression of ROR-γt protein (ROR-γt protein; 5 to 50 μM)	Th2 cell differentiation (effect in words) (Th2 differentiation; 25 μM)	ratio of the IL-4 producing Th2 differentiation (Th2 differentiation; 25 μM)	ROR-γt luciferase reporter activity ([1]; 5 to 50 μM)	Th1 cell differentiation (effect in words) (Th1 differentiation; 25 μM)	ratio of the IFN-γ producing Th1 differentiation (Th1 differentiation; 25 μM)	Treg cell differentiation (effect in words) (Treg differentiation; 25 μM)	cytotoxicity on human PBMCs [2]	ratio of the IL-17 production (Th17 differentiation; 25 μM)	Th17 cell differentiation (effect in words) (Th17 differentiation)	Foxp3 producing Treg differentiation (Treg differentiation; 25 μM)	ratio of the IL-4 producing Th2 differentiation (Th2 differentiation; 10 μM)	ratio of the IFN-γ producing Th1 differentiation (Th1 differentiation; 10 μM)	ratio of the IL-17 production (Th17 differentiation; 10 μM)	expression of ROR-γt protein (ROR-γt protein; 1 to 25 μM)	Th2 cell differentiation (effect in words) (Th2 differentiation; 10 μM)	ROR-γt luciferase reporter activity ([1]; 1 to 25 μM)	Th1 cell differentiation (effect in words) (Th1 differentiation; 10 μM)	Treg cell differentiation (effect in words) (Treg differentiation; 10 μM)	Foxp3 producing Treg differentiation (Treg differentiation; 10 μM)
C=C1[C@@H]([C@@]2(C)C=CC(=O)OC(C)(C)[C@@H]2CC(=O)OC)[C@@H](OC(C)=O)[C@H](OC(=O)C(C)C)[C@@]2(C)[C@H](c3ccoc3)C[C@H]3O[C@]132 [Amotsangin B]	reduces	can inhibit	4.11%	dose-dependently reduced; also recorded: inhibits	can inhibit	2.02%	no effect; also recorded: not effect	no significant cytotoxicity	1.08%	can suppress										
C=C1[C@@H]([C@@]2(C)C=CC(=O)OC(C)(C)[C@@H]2CC(=O)OC)[C@@H](OC(C)=O)[C@H](OC(=O)C(C)CC)[C@@]2(C)[C@H](c3ccoc3)C[C@H]3O[C@]132 (stereo partly drawn) [Amotsangin A]	dose-dependently reduced; also recorded: reduces	no inhibitory effect	14.8%	dose-dependently reduced; also recorded: inhibits	no inhibitory effect	could not be changed	no inhibitory effect	no significant cytotoxicity	4.28%	can suppress										
C=C1[C@@H]([C@@]2(C)C=CC(=O)OC(C)(C)[C@@H]2CC(=O)OC)[C@@H](OC(C)=O)[C@H](OC(=O)CC)[C@@]2(C)[C@H](c3ccoc3)C[C@H]3O[C@]132 [Amotsangin D]	reduces	could inhibit	11.9%	dose-dependently reduced; also recorded: reduces	no inhibitory effect; also recorded: slight inhibitory effect	14.6%	no inhibitory effect	no significant cytotoxicity	1.59%	can suppress	13.7%									
C[C@H]1O[C@@H](O[C@H]2[C@@H](O)C[C@H](O[C@H]3[C@@H](O)C[C@H](O[C@H]4CC[C@@]5(C)[C@H](CC[C@@H]6[C@@H]5C[C@@H](O)[C@]5(C)[C@@H](C7=CC(=O)OC7)CC[C@]65O)C4)O[C@@H]3C)O[C@@H]2C)C[C@H](O)[C@@H]1O [digoxin, reference compound]												15.0% and 10.2%	10.8% and 15.3% and 17.0%	5.43%						
C=C1[C@@H]([C@@]2(C)C=CC(=O)OC(C)(C)[C@@H]2CC(=O)OC)[C@@H](OC(C)=O)[C@H](OC(=O)C(O)C(C)CC)[C@@]2(C)[C@H](c3ccoc3)C[C@H]3O[C@]132 (stereo partly drawn) [Amotsangin C]								no significant cytotoxicity		can suppress		8.7%	10.2%	1.91%	reduced	inhibits	dose-dependently reduced; also recorded: reduces	inhibits; also recorded: can inhibit	inhibits	8.49%
